pIC50: −log10 of the molar value.
Legend:
[1] = tested on: tyrosinase activity of normal human epidermal melanocytes; assay: Tyrosinase activity of normal human melanocytes in culture (72 h treatment, lysate, L-Dopa substrate, absorbance 450 nm); assay type: cell-based; conditions: for Stimulation of the tyrosinase activity: 72 h
Method: a) Melanocyte Culture Conditions:
Normal human epidermal melanocytes are cultured (9th passage) in melanocyte growth medium M2 supplemented with:
Promocell C24300 supplements
Penicillin 50 IU/ml and streptomycin 50 μg/ml (Invitrogen) under standard temperature conditions (37° C.) at 5% CO2.
b) Preparation of the Solutions of the Test Compound:
The final titre of the prepared solutions is 10 mM. The final test concentrations range from 0.1 to 10 μM (PGE2) and 1 to 10 μM (15-PGDH inhibitors).
c)Principle of the Tests:
The tests performed consist in measuring the […] alone or combined with PGE2* on the overall activity of tyrosinase. *PGE2 is a pigmentation modulator that is deactivated by the enzyme 15-PGDH.
The melanocytes are cultured in 96-well plates up to confluence (culture conditions described in a) and the supernatant of each of the wells is then removed and replaced with the medium containing the compounds to be evaluated.
Thus (in triplicate), the 15-PGDH inhibitor alone at 1 μM and 10 μM or, for each of these first conditions, in the presence of 0.1 μM, 1 μM or 10 μM of PGE2.
The cultures are maintained under these various conditions for 72 h, the supernatants are then removed and the cell lawns are washed with a phosphate buffer (pH=7.2). The cells are lysed with a pH 7.2 phosphate buffer containing 1% Triton X100.
The tyrosinase activity of each of the lysates is then estimated against a fungal tyrosinase range (Sigma T7755).
The methodology implemented uses L-Dopa as reaction substrate (45 minutes at 37° C.); the formation of melanin is assessed by measuring the absorbance at 450 nm.
In this test, two references are also evaluated: kojic acid (a tyrosinase inhibitor introduced at 0.1% into the culture medium) and isobutyl methyl xanthine (IBMX), a phosphodiesterase inhibitor which, by limiting the catabolism of cAMP, contributes towards increasing the overall tyrosinase activity as assessed in this test.

[2] = molecular target: T1, type-1 15-PGDH (Homo sapiens, UniProt P15428); assay: Test on type-1 15-PGDH (spectrophotometric, NADH formation at 340 nm, PGE2 substrate); assay type: biochemical; conditions: 37° C., pH 7.4 Tris buffer, 1.5 mM β-NAD, 50 μM Prostaglandin E2
T1 construct: made in house
T1 sequence (P15428 1-266): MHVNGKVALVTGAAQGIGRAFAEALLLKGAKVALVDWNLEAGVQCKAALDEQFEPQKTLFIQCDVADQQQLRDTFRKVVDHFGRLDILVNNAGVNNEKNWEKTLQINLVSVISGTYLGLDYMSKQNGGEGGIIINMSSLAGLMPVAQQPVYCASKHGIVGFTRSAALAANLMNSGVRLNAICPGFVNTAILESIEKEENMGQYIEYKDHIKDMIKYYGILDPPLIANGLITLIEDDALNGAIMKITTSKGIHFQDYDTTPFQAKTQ
Method: For the purposes of the test, this suspension is thawed and stored in ice.
0.965 ml of this buffer (brought to 37° C. beforehand) is introduced into the cuvette of a spectrophotometer (Perkin-Elmer, Lambda 2) thermostatically maintained at 37° C., the measuring wavelength of which is set at 340 nm. 0.035 mL of enzymatic suspension at 37° C. is introduced into the cuvette concomitantly with the recording (corresponding to an increase in the optical density at 340 nm). The maximum reaction rate is recorded.

CC(C)(C)c1ccc(Oc2ccccc2/C=C2\SC(=O)N=C2[O-])cc1.[Na+] [Compound 4, (5Z)-5-[2-(4-tert-butylphenoxy)benzylidene]-1,3-thiazolidine-2,4-dione]
Stimulation of the tyrosinase activity ([1]; Compound 4 1 μM + PGE2 0.1 μM): +27% | Stimulation of the tyrosinase activity ([1]; Compound 4 1 μM + PGE2 1 μM): +40% | Stimulation of the tyrosinase activity ([1]; Compound 4 1 μM + PGE2 10 μM): +32% | Stimulation of the tyrosinase activity ([1]; Compound 4 1 μM alone): +16%

O=C1NC(=O)/C(=C\c2ccc(OCc3cccc(Cl)c3)cc2)S1 [Compound 13]
pIC50 [2]: 5.30

O=C1NC(=O)/C(=C/c2ccccc2Oc2ccc(Br)c(F)c2)S1 [Compound 14]
pIC50 [2]: 5.81

CCCCC[C@H](O)/C=C/[C@H]1[C@H](O)CC(=O)[C@@H]1C/C=C\CCCC(=O)O [PGE2, Prostaglandin E2, reference compound]
Stimulation of the activity of tyrosinase ([1]; PGE2 alone at 0.1 μM): +3% | Stimulation of the activity of tyrosinase ([1]; PGE2 alone at 1 μM): +9%

— patent publication US20070071699A1, “Benzylidene-1,3-thiazolidine-2,4-dione compounds for promoting and/or inducing and/or stimulating the pigmentation of keratin materials and/or for limiting their depigmentation and/or whitening” (L'OREAL, priority 2005, published 2007)
